Experimental data as given in ChEMBL document CHEMBL4396891, “Recent update on anti-dengue drug discovery” (Eur J Med Chem, 2019).
Values after ≈ are worked out from the molar mass of the structure shown.

Assays:
dengue virus type 1 [1] = experiment: Antiviral activity against DENV1 02-20 infected in African green monkey Vero cells after 3 days by focus reduction assay; assay type: functional, organism-based; conditions: 02-20, Vero, 72 h
dengue virus type 2 [2] = experiment: Antiviral activity against DENV2 16681 infected in African green monkey Vero cells after 3 days by focus reduction assay; assay type: functional, organism-based; conditions: Dengue virus, 16681, Vero, 72 h
dengue virus type 3 [3] = experiment: Antiviral activity against DENV3 00-40 infected in African green monkey Vero cells after 3 days by focus reduction assay; assay type: functional, organism-based; conditions: 00-40, Vero, 72 h
dengue virus type 4 [4] = experiment: Antiviral activity against DENV4 09-48 infected in African green monkey Vero cells after 3 days by focus reduction assay; assay type: functional, organism-based; conditions: 09-48, Vero, 72 h
dengue virus type 3 [5] = experiment: Antiviral activity against DENV3 infected in African green monkey Vero cells assessed as reduction in viral replication after 4 days by qRT-PCR analysis; assay type: functional, organism-based; conditions: 96 h
dengue virus type 1 [6] = experiment: Antiviral activity against DENV1 infected in African green monkey Vero cells assessed as reduction in viral replication after 4 days by qRT-PCR analysis; assay type: functional, organism-based; conditions: 96 h
dengue virus type 2 [7] = experiment: Antiviral activity against DENV2 infected in African green monkey Vero cells assessed as reduction in viral replication after 4 days by qRT-PCR analysis; assay type: functional, organism-based; conditions: 96 h
Genome polyprotein [8] = molecular target: T1, Genome polyprotein (dengue virus type 2, UniProt P29990); experiment: Inhibition of His-tagged DENV2 NS2B-NS3 serine protease expressed in Escherichia coli BL21 using Boc-Gly-Arg-Arg-7-amino-4-methylcoumarin as substrate measured after 10 mins by fluorometric assay
dengue virus type 4 [9] = experiment: Antiviral activity against DENV4 infected in African green monkey Vero cells assessed as reduction in viral replication after 4 days by qRT-PCR analysis; assay type: functional, organism-based; conditions: 96 h
dengue virus type 2 [10] = experiment: Antiviral activity against DENV2 infected in monkey LLC-MK2 cells assessed as reduction in plaque formation after 72 hrs by 96-well based plaque titration method; assay type: functional, organism-based; conditions: LLC-MK2, 72 h
dengue virus type 2 [11] = experiment: Antiviral activity against DENV2 infected in African green monkey Vero cells assessed as reduction in plaque formation after 72 hrs by 96-well based plaque titration method; assay type: functional, organism-based
dengue virus type 2 [12] = experiment: Antiviral activity against DENV2 […] infected in African green monkey Vero cells by qRT-PCR analysis; assay type: functional, organism-based
dengue virus type 2 [13] = experiment: Antiviral activity against DENV2 ICC265 infected in human Huh7 cells assessed as reduction in viral titer by plaque assay; assay type: functional, organism-based; conditions: ICC265, Huh-7
dengue virus type 2 [14] = experiment: Antiviral activity against DENV2 infected in human HepG2 cells; assay type: functional, organism-based
dengue virus type 4 [15] = experiment: Antiviral activity against DENV4 after 48 hrs by focus reduction assay; assay type: functional, organism-based
dengue virus type 2 [16] = experiment: Antiviral activity against DENV2 after 48 hrs by focus reduction assay; assay type: functional, organism-based
dengue virus type 1 [17] = experiment: Antiviral activity against DENV1 after 48 hrs by focus reduction assay; assay type: functional, organism-based
dengue virus type 3 [18] = experiment: Antiviral activity against DENV3 after 48 hrs by focus reduction assay; assay type: functional, organism-based
Dengue virus = experiment: Antiviral activity against Dengue virus infected in human HepG2 cells assessed as viral production at 150 uM after 1 hrs by flow cytometry analysis relative to control; assay type: functional
dengue virus type 2 [19] = experiment: Antiviral activity against DENV2 infected in BHK-21 cells; assay type: functional, organism-based
dengue virus type 3 [20] = experiment: Antiviral activity against DENV3 infected in African green monkey Vero cells assessed as virus yield reduction after 48 hrs by plaque assay; assay type: functional, organism-based
dengue virus type 1 [21] = experiment: Antiviral activity against DENV1 infected in African green monkey Vero cells assessed as virus yield reduction after 48 hrs by plaque assay; assay type: functional, organism-based
dengue virus type 4 [22] = experiment: Antiviral activity against DENV4 infected in African green monkey Vero cells assessed as virus yield reduction after 48 hrs by plaque assay; assay type: functional, organism-based
dengue virus type 2 [23] = experiment: Antiviral activity against DENV2 infected in African green monkey Vero cells assessed as virus yield reduction after 48 hrs by plaque assay; assay type: functional, organism-based
dengue virus type 2 [24] = experiment: Antiviral activity against DENV2 infected in BHK cells assessed as reduction in viral Yield at 20 uM after 48 hrs by fluorescence focus formation assay relative to control; assay type: functional; design: scale not given: the % may be the effect or the level left
dengue virus type 2 [25] = experiment: Antiviral activity against DENV2 infected in human Huh7 cells assessed as reduction in viral Yield at 20 uM after 48 hrs by fluorescence focus formation assay relative to control; assay type: functional; design: scale not given: the % may be the effect or the level left
dengue virus type 1 [26] = experiment: Antiviral activity against DENV1 infected in human A549 cells after 3 days by focus reduction assay; assay type: functional, organism-based; conditions: A549, 72 h
dengue virus type 4 [27] = experiment: Antiviral activity against DENV4 infected in mouse RAW 264.7 cells by MTT assay; assay type: functional, organism-based; conditions: RAW264.7
dengue virus type 2 [28] = experiment: Antiviral activity against DENV2 infected in mouse RAW 264.7 cells by MTT assay; assay type: functional, organism-based; conditions: RAW264.7
Genome polyprotein [29] = molecular target: T1, Genome polyprotein; experiment: Inhibition of Dengue virus NS2B-NS3 serine protease expressed in mouse RAW 264.7 cells; assay type: cell-based
dengue virus type 3 [30] = experiment: Antiviral activity against DENV3 infected in mouse RAW 264.7 cells by MTT assay; assay type: functional, organism-based; conditions: RAW264.7
dengue virus type 1 [31] = experiment: Antiviral activity against DENV1 infected in mouse RAW 264.7 cells by MTT assay; assay type: functional, organism-based; conditions: RAW264.7

T1 sequence (P29990 1346-1475 limits assumed): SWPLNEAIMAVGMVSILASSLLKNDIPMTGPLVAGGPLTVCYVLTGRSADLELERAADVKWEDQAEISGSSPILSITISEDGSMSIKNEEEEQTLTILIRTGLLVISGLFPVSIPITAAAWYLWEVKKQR
T1 sequence (P29990 1476-2093 limits assumed): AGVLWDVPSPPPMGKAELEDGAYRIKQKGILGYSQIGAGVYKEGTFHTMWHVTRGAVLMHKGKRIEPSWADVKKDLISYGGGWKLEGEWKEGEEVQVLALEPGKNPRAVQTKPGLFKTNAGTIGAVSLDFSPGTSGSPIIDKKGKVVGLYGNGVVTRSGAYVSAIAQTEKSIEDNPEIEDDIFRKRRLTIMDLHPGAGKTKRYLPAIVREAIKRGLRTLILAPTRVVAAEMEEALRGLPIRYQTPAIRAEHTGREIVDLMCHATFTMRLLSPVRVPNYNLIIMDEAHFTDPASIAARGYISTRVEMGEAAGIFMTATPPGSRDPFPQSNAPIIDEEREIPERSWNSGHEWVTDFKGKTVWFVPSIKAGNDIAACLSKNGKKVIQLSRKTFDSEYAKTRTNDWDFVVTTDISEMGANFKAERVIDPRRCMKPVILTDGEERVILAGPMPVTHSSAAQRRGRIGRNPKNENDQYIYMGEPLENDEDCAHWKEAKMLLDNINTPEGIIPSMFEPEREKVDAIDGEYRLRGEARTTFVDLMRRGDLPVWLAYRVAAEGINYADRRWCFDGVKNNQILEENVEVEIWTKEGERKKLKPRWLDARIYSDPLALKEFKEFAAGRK

`CC(C)C[C@H]1C(=O)N2CCC[C@H]2[C@]2(O)O[C@](NC(=O)[C@@H]3C=C4c5cccc6[nH]c(Br)c(c56)C[C@H]4N(C)C3)(C(C)C)C(=O)N12` [BROMOCRIPTINE] was tested, and the EC50 (dengue virus type 1 [1]) was 1.6 µM, the EC50 (dengue virus type 2 [2]) was 0.8 to 1.2 µM and the EC50 (dengue virus type 3 [3]) was 0.8 to 1.2 µM. For the same compound, the EC50 (dengue virus type 4 [4]) was 0.8 to 1.2 µM.
`O=C(Nc1nc2cc(O)c(O)cc2s1)c1ccccc1Sc1ccc(C(F)(F)F)cc1` was tested, and the EC50 (dengue virus type 3 [5]) was 0.1 µM, the EC50 (dengue virus type 1 [6]) was 0.1 to 3 µM and the EC50 (dengue virus type 2 [7]) was 0.1 µM. It also gave an IC50 (Genome polyprotein [8]) of 3.6 µM and an EC50 (dengue virus type 4 [9]) of 0.1 µM.
In the case of `COc1cc2c(c(O)c1C)C(=O)CC(c1ccccc1)O2` (configuration not stated) [STROBOPININ-7-METHYLETHER], the EC50 (dengue virus type 2 [10]) is reported as 3.72 µM and the EC50 (dengue virus type 2 [11]) is reported as 12.3 µM.
`CC[C@@H]([C@H](C)O)n1ncn(-c2ccc(N3CCN(c4ccc(OC[C@@H]5CO[C@@](Cn6cncn6)(c6ccc(F)cc6F)C5)cc4)CC3)cc2)c1=O` [POSACONAZOLE] gave an EC50 (dengue virus type 2 [12]) of 4.1 µM.
Compound `COc1cc2c(c(OC)c1OC)-c1c(cc(OC)c(OC)c1OC)C[C@H](C)[C@H](C)C2` [SCHISANDRIN A] has an EC50 (dengue virus type 2 [13]) of 28.1 µM.
In the case of `COc1ccc([C@@H]2CC(=O)c3c(O)cc(O[C@@H]4O[C@H](CO[C@@H]5OC[C@](O)(CO)[C@H]5O)[C@@H](O)[C@H](O)[C@H]4O)cc3O2)cc1`, the IC50 (dengue virus type 2 [14]) is reported as 13.1 µg/mL (≈ 22.6 µM).
In the case of `C[C@H]1CCC/C=C/[C@@H]2C[C@H](O)C[C@H]2[C@H](O)/C=C/C(=O)O1` [BREFELDIN A], the EC50 (dengue virus type 4 [15]) is reported as 54.6 to 65.7 µM, the EC50 (dengue virus type 2 [16]) is reported as 54.6 to 65.7 µM and the EC50 (dengue virus type 1 [17]) is reported as 54.6 to 65.7 µM. It also gave an EC50 (dengue virus type 3 [18]) of 54.6 to 65.7 µM.
For `C=C[C@H]1CN2CC[C@H]1C[C@H]2[C@H](O)c1ccnc2ccc(OC)cc12` [QUININE], the Activity (Dengue virus) was 19%.
`O=c1c(O)c(-c2ccc(O)c(O)c2)oc2cc(O)cc(O)c12` [QUERCETIN] gave an IC50 (dengue virus type 2 [19]) of 176 µg/mL (≈ 583 µM).
`COc1ccc2c3ccnc(C)c3n(C)c2c1` was tested, and the EC50 (dengue virus type 3 [20]) was 3.2 to 49.5 µM, the EC50 (dengue virus type 1 [21]) was 3.2 to 49.5 µM and the EC50 (dengue virus type 4 [22]) was 3.2 to 49.5 µM. For the same compound, the EC50 (dengue virus type 2 [23]) was 3.2 to 49.5 µM.
Work on `C=CCc1ccc(O)c(-c2ccc(O)c(CC=C)c2)c1` [HONOKIOL] yielded an Activity (dengue virus type 2 [24]) of over 90% and an Activity (dengue virus type 2 [25]) of over 90%.
`CC[C@H]1CN2CCc3c([nH]c4ccccc34)[C@H]2C[C@@H]1/C(=C\OC)C(=O)OC` [HIRSUTINE] was tested, and the EC50 (dengue virus type 1 [26]) was 1.9 µM.
Work on `CC(=O)O[C@H]1CC(C)(C)C(=C=C/C(C)=C/C=C/C=C/C=C(C)/C=C2C=C(/C=C/[C@@]34O[C@]3(C)C[C@@H](O)CC4(C)C)C(=O)O/2)[C@](C)(O)C1` yielded an EC50 (dengue virus type 4 [27]) of 5.84 to 7.62 µM, an EC50 (dengue virus type 2 [28]) of 5.84 to 7.62 µM and an EC50 (Genome polyprotein [29]) of 8.5 µM. The EC50 (dengue virus type 3 [30]) was 5.84 to 7.62 µM and the EC50 (dengue virus type 1 [31]) was 5.84 to 7.62 µM.
